The values below come from US9999609B2, “Methods for treating or preventing fatigue” (SK Biopharmaceuticals Co., Ltd., priority 2009, dated 2018).

Assay type in all cases: in vivo
For series [1], the system named is hypocretin cell ablated narcoleptic mice (prepororexin/ataxin-3 transgenic) and their littermate wild-type mice. Briefly: Sleep parameters (EEG/EMG polygraph) in narcoleptic and wild-type mice after oral dosing. The text has this: The polygraph signal (EEG and EMG) was captured with SleepSign (Kissei Comtech), and the sleep stage was visually scored with 10 sec epoch for wakefulness, non-REM sleep and REM sleep. Scoring criteria are: Wakefulness is characterized by desynchronized low-amplitude, mixed frequency (>4 Hz) EEG and high EMG activity. Rhythmic alpha (8-9 Hz) wave (with high EMG activities) may also appear. Non-REM is characterized by synchronized, high-amplitude, low-frequency (0.25-4 Hz) with reduced EMG activity (compared to wakefulness). EEG activity in REM sleep is similar to that in wakefulness, with desynchronized, mixed frequency low amplitude waves. Rhythmic alpha (8-9 Hz) wave with reduced EMG activities may also appear. […] is reduced even further and in many cases, completely absent. Same muscle twitching may be apparent in the EMG trace during REM sleep.
Three drug doses of the test compound (50, 100 and 150 mg/kg PO) plus vehicle, were orally administered at ZT 2 (2 hours after light on) or ZT14 (2 hours after light off), and the effects on sleep were monitored for 6 hours after the drug administration (the sleep data was collected for 30 hours after the drug injection, and are available for further analysis). The doses for modafinil were 50 and 200 mg/kg PO (plus vehicle), and modafinil was also administered at ZT 2 and […]
If the polygraph signals of some mice were not sufficient to score the sleep stage with accuracy (especially bad EMG), data from these animals were excluded, and the minimum of 5 animals (except for the highest dose of the test compound in wild-type mice in dark period, n=4) were included for the data analysis and number of animals were indicated in the figures.
Effects of test compound and modafinil on the amount of wake, non-REM sleep, REM sleep (cumulative seconds), number of episodes for each sleep stage during 6 hours, and mean wake/sleep-bout lengths (seconds) were analyzed in each animal and the mean of each parameter was calculated in each genotype. The effects of compounds on wake and sleep amounts are useful to evaluate the wake promoting potency, and the number of episodes for each sloop stage and the mean wake/sleep bout length are parameters for evaluating the sleep fragmentation. Amphetamine and modafinil, two main wake-promoting compounds currently used for the treatment of EDS associated with various etiologies (narcolepsy, idiopathic hypersomnia and secondary EDS), are known to increase wake time and prolong wake bout length in normal and EDS conditions.
A comparison of the effects between hypocretin deficient and wild-type mice is very useful in determining the wake-promotion of the test compound is dependent on the availability of hypocretins, and if there is a possible change in the sensitivity of the receptive mechanisms of test compound in narcoleptic mice due to the hypocretin ligand deficiency.

The subject of series [2] is male adult Sprague Dawley rats. Briefly: Sleep-wake organization (EEG/EOG/EMG) in rats after acute i.p. administration. As to conditions: rats, mean ± s.e.m of 8 rats; for Duration Active wake / Duration Deep sleep / Duration Intemediate stage / Duration Light sleep / Duration Passive wake / Duration REM sleep: 16 h recording.
The subject of series [3] is adult human subjects with moderate or severe major depression without psychotic features. Briefly: Randomized double-blind placebo- and active-controlled 6-week study in major depression. Conditions: 20 mg/day. An excerpt:
This was a randomized, double-blind, parallel-group, active, and placebo-controlled, multicenter study conducted in the U.S. (23 centers) and Canada (4 centers). There were 2 phases: a pretreatment phase (screening/washout and a baseline visit) and a 6-week, double-blind treatment phase. Paroxetine, a positive control, was included to evaluate assay sensitivity. After washout (if needed) of prohibited substances, subjects were randomly assigned (1:1:1:1) to receive the test compound titrated to a target dose of 200 mg/day or 400 mg/day, matching placebo, or a fixed dose (20 mg/day) of paroxetine. Study drug was given twice daily for 6 weeks. Efficacy and safety were assessed weekly during the double-blind phase. Subjects completing the study underwent an Exit Interview (“Your Health and Well-Being”) and completed an Assessment of Benefits of Clinical-trial Drug-treatment (ABCD) questionnaire (U.S. sites only).

Series [4] concerns C57BL/6J, AKR/J and DBA/2J mice. Kind of series: Sleep onset and vigilance states in three inbred mouse strains after IP injection. How it is done:
At least 7 adult male mice of inbred strains C57BL/6J, AKR/J, and DBA/2J were recorded in 2 sessions of 72 continuous hours. The first 24 h in each session are considered as baseline followed the next day by the saline injection and the next day by 150 mg/kg of the test compound in the first session and 5 mg/kg d-amphetamine in the second session. The two sessions were separated by 7 days (wash-out period) and all injections were intraperitoneal (IP) and performed at light onset (9 am) in a volume of 5 ml/kg.

Take `NC(=O)C[S+]([O-])C(c1ccccc1)c1ccccc1` (stereo not shown) [modafinil]: the effect on wakefulness result in series [1] (active (dark) period, ZT14, PO) was “dose-dependently increased wakefulness”. Besides, the “wake amount in narcoleptic mice relative to wild-type baseline” value in series [1] (active period, 200 mg/kg PO) was “did not bring the wake amount to that of the wild-type baseline levels”. In series [1] (resting period, PO), the “dose of test compound whose wake promoting effect corresponds to 200 mg/kg of modafinil” value is on record as approximately 50 mg/kg and the “effect on REM sleep” value is reported as “did not strongly reduce REM sleep”. The wake-promoting effects entry in series [1] (resting period, wild-type and hypocretin-deficient narcoleptic mice, PO) was “modest”.

As for `COC(=O)[C@H]1[C@@H](OC(=O)c2ccccc2)C[C@@H]2CC[C@H]1N2C` [Cocaine, cocaine], in series [2] (1 mg/kg i.p.), the “Duration Active wake” value is reported as 331.5 ± 41.5 min, the “Duration Deep sleep” value is given as 162.9 ± 26.3 min, the “Duration Intemediate stage” value was 6.7 ± 1.0 min and the “Duration Light sleep” value is on record as 293.2 ± 26.3 min. For the same compound, in series [2] (1 mg/kg i.p.), the “Duration Passive wake” value was 69.8 ± 11.0 min, the “Duration REM sleep” value was 84.2 ± 8.1 min, the “Latency ISWS” value was determined as 69.9 ± 51.2 min and the “Latency REM sleep” value came to 74.3 ± 12.1 min. Besides, in series [2] (1 mg/kg i.p.), the “Latency dSWS” value amounted to 79.3 ± 26.7 min, the “Shifts: Shift from ISWS to AW” value is given as 184.1 ± 48.1 number, the “Shifts: Shift from ISWS to PW” value is listed as 128.6 ± 45.2 number and the “Shifts: Shift from REMS to AW” value came to 74.5 ± 21.5 number. In series [2] (1 mg/kg i.p.), the “Shifts: Shift from REMS to PW” value amounted to 17.0 ± 8.8 number, the “Shifts: Shift from dSWS to AW” value worked out at 10.1 ± 5.6 number and the “Shifts: Shift from dSWS to PW” value is 66.6 ± 48.2 number. For the same compound, in series [2] (3 mg/kg i.p.), the “Duration Active wake” value was found to be 324.8 ± 18.3 min, the “Duration Deep sleep” value turned out to be 172.6 ± 34.3 min, the “Duration Intemediate stage” value was 5.7 ± 0.6 min and the “Duration Light sleep” value stood at 303.2 ± 42.5 min. In series [2] (3 mg/kg i.p.), the “Duration Passive wake” value is listed as 66.7 ± 8.9 min, the “Duration REM sleep” value amounted to 76.7 ± 6.3 min, the “Latency ISWS” value worked out at 41.5 ± 9.2 min and the “Latency REM sleep” value is on record as 112.0 ± 12.2 min. In series [2] (3 mg/kg i.p.), the “Latency dSWS” value came to 68.6 ± 7.6 min, the “Shifts: Shift from ISWS to AW” value is recorded as 218.5 ± 50.6 number, the “Shifts: Shift from ISWS to PW” value is reported as 142.2 ± 48.5 number and the “Shifts: Shift from REMS to AW” value turned out to be 56.0 ± 16.4 number. Besides, in series [2] (3 mg/kg i.p.), the “Shifts: Shift from REMS to PW” value came out at 10.7 ± 6.9 number, the “Shifts: Shift from dSWS to AW” value is 10.2 ± 6.7 number and the “Shifts: Shift from dSWS to PW” value stood at 64.5 ± 42.6 number. Besides, in series [2] (10 mg/kg i.p.), the “Duration Active wake” value amounted to 347.3 ± 16.5 min, the “Duration Deep sleep” value is on record as 171.9 ± 23.8 min, the “Duration Intemediate stage” value turned out to be 6.3 ± 1.1 min and the “Duration Light sleep” value is recorded as 294.6 ± 24.4 min. For the same compound, in series [2] (10 mg/kg i.p.), the “Duration Passive wake” value turned out to be 55.0 ± 10.4 min, the “Duration REM sleep” value was 74.7 ± 7.5 min, the “Latency ISWS” value was found to be 101.8 ± 6.9 min and the “Latency REM sleep” value is given as 192.1 ± 18.5 min. Besides, in series [2] (10 mg/kg i.p.), the “Latency dSWS” value is recorded as 138.8 ± 8.7 min, the “Shifts: Shift from ISWS to AW” value is listed as 201.2 ± 53.6 number, the “Shifts: Shift from ISWS to PW” value came to 132.6 ± 48.2 number and the “Shifts: Shift from REMS to AW” value came to 52.3 ± 16.5 number. In series [2] (10 mg/kg i.p.), the “Shifts: Shift from REMS to PW” value was found to be 9.2 ± 5.8 number, the “Shifts: Shift from dSWS to AW” value was 10.4 ± 6.2 number and the “Shifts: Shift from dSWS to PW” value was 37.6 ± 23.8 number.

Turning to `CC(N)Cc1ccccc1` (stereo not shown) [Amphetamine, amphetamine], in series [2] (1 mg/kg i.p.), the “Duration Active wake” value was found to be 382.4 ± 19.6 min, the “Duration Deep sleep” value turned out to be 188.0 ± 19.6 min, the “Duration Intemediate stage” value was 4.0 ± 19.6 min and the “Duration Light sleep” value was 242.7 ± 19.6 min. In series [2] (1 mg/kg i.p.), the “Duration Passive wake” value was 50.0 ± 19.6 min, the “Duration REM sleep” value is recorded as 88.6 ± 19.6 min, the “Latency ISWS” value amounted to 140.6 ± 13.4 min and the “Latency REM sleep” value is 208.6 ± 14.4 min. In series [2] (1 mg/kg i.p.), the “Latency dSWS” value is 161.7 ± 5.3 min, the “Shifts: Shift from ISWS to AW” value is 198.8 ± 50.1 number, the “Shifts: Shift from ISWS to PW” value is on record as 64.4 ± 30.5 number and the “Shifts: Shift from REMS to AW” value is listed as 66.5 ± 19.1 number. Moreover, in series [2] (1 mg/kg i.p.), the “Shifts: Shift from REMS to PW” value came out at 5.8 ± 4.8 number, the “Shifts: Shift from dSWS to AW” value is given as 11.7 ± 7.2 number and the “Shifts: Shift from dSWS to PW” value turned out to be 37.7 ± 30.0 number. Moreover, in series [2] (3 mg/kg i.p.), the “Duration Active wake” value amounted to 441.8 ± 15.7 min, the “Duration Deep sleep” value was 207.6 ± 17.7 min, the “Duration Intemediate stage” value came to 4.0 ± 1.0 min and the “Duration Light sleep” value is on record as 187.9 ± 23.9 min. In series [2] (3 mg/kg i.p.), the “Duration Passive wake” value amounted to 43.5 ± 4.4 min, the “Duration REM sleep” value amounted to 71.4 ± 4.1 min, the “Latency ISWS” value is on record as 228.2 ± 25.0 min and the “Latency REM sleep” value was 338.6 ± 24.3 min. Moreover, in series [2] (3 mg/kg i.p.), the “Latency dSWS” value is 242.0 ± 19.4 min, the “Shifts: Shift from ISWS to AW” value is 178.7 ± 46.6 number, the “Shifts: Shift from ISWS to PW” value is reported as 62.4 ± 26.1 number and the “Shifts: Shift from REMS to AW” value is listed as 59.3 ± 17.8 number. In series [2] (3 mg/kg i.p.), the “Shifts: Shift from REMS to PW” value is 3.3 ± 2.6 number, the “Shifts: Shift from dSWS to AW” value was 14.8 ± 7.8 number and the “Shifts: Shift from dSWS to PW” value is reported as 26.6 ± 16.8 number. Also, in series [2] (10 mg/kg i.p.), the “Duration Active wake” value was determined as 498.7 ± 19.0 min, the “Duration Deep sleep” value came out at 181.2 ± 22.0 min, the “Duration Intemediate stage” value came out at 4.0 ± 1.0 min and the “Duration Light sleep” value was 182.0 ± 26.3 min. For the same compound, in series [2] (10 mg/kg i.p.), the “Duration Passive wake” value stood at 35.6 ± 4.7 min, the “Duration REM sleep” value is given as 53.6 ± 5.0 min, the “Latency ISWS” value stood at 284.7 ± 56.1 min and the “Latency REM sleep” value is recorded as 440.8 ± 57.8 min. In addition, in series [2] (10 mg/kg i.p.), the “Latency dSWS” value is given as 367.3 ± 5.5 min, the “Shifts: Shift from ISWS to AW” value was 201.7 ± 66.1 number, the “Shifts: Shift from ISWS to PW” value turned out to be 49.0 ± 25.5 number and the “Shifts: Shift from REMS to AW” value worked out at 50.0 ± 16.2 number. In addition, in series [2] (10 mg/kg i.p.), the “Shifts: Shift from REMS to PW” value is given as 2.2 ± 1.9 number, the “Shifts: Shift from dSWS to AW” value is on record as 9.7 ± 5.9 number and the “Shifts: Shift from dSWS to PW” value is 11.6 ± 8.9 number.

As for `Fc1ccc([C@@H]2CCNC[C@H]2COc2ccc3c(c2)OCO3)cc1` [paroxetine], the “Insomnia, treatment-emergent adverse event incidence” value in series [3] (6 weeks) is given as 17%. In addition, the “ABCD questionnaire items (of 51) with statistically significant superiority to placebo” value in series [3] (post hoc analyses) came to 14 items.

Consider `C[C@H](N)Cc1ccccc1` [d-amphetamine], for which, in series [4] (5 mg/kg IP), the “amount of wakefulness compared with 150 mg/kg test compound” value is “failed to induce the same amount of wakefulness as 150 mg/kg of test compound” and the “genotype effect on induced wakefulness (AK vs D2 mice)” value was “genotype-dependent effect”. The “dose-response of induced wakefulness (sleep latency)” value in series [4] (C57BL/6J mice, 1, 2, 4, 5, 8 mg/kg IP) is “dose-dependent manner between 1 and 5 mg/kg”.
